The target of series [1] is T1, P2X purinoceptor 7 (Mus musculus, UniProt Q9Z1M0).
T1 sequence (Q9Z1M0 whole entry): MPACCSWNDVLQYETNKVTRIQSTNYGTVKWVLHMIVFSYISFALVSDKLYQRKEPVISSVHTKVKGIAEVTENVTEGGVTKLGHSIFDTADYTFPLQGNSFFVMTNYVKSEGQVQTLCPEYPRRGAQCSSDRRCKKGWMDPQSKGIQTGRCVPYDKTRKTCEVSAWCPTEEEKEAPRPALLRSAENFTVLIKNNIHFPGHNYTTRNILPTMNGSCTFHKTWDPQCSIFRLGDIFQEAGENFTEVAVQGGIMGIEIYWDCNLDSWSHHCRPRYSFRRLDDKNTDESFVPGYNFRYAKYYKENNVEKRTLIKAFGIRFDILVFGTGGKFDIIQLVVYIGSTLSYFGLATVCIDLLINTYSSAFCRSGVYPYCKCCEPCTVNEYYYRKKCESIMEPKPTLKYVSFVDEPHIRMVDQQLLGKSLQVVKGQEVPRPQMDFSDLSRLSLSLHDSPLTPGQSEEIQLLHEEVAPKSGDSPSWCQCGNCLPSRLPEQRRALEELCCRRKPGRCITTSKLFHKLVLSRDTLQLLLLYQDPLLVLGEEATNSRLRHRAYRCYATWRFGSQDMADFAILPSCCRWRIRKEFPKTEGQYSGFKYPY
Description: Antagonist activity at mouse P2X7 receptor expressed in human 1321N1 cells assessed as reduction in agonist-induced intracellular Ca2+ levels preincubated for 3 mins followed by agonist addition measured up to 2 mins by Fluo-4 dye-based FLIPR assay. Type of series: cell-based.

In series [2] the target is T2, P2X purinoceptor 7 (Homo sapiens, UniProt Q99572).
T2 sequence (Q99572 whole entry): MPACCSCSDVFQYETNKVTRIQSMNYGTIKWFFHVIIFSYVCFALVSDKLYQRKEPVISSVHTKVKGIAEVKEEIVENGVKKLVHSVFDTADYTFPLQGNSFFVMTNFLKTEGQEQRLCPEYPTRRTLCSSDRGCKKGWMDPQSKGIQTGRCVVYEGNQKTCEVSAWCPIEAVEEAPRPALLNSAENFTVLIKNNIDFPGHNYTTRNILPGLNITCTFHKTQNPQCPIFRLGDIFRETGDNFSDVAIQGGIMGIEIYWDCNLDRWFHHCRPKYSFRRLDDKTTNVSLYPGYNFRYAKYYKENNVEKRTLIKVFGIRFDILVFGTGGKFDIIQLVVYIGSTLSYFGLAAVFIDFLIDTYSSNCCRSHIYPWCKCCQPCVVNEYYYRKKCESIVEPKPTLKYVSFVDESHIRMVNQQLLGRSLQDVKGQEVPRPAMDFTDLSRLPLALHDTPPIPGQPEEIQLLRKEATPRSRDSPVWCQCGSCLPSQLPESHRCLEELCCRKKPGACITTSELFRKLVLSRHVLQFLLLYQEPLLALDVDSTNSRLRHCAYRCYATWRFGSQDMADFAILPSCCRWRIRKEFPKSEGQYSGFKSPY
Description: Antagonist activity at human P2X7 receptor expressed in human 1321N1 cells assessed as reduction in agonist-induced intracellular Ca2+ levels preincubated for 3 mins followed by agonist addition measured up to 2 mins by Fluo-4 dye-based FLIPR assay. Type of series: cell-based.

For series [3], the target named is T2, P2X purinoceptor 7. Description: Antagonist activity at human P2X7 receptor expressed in human THP1 cells assessed as reduction in BzATP-induced pore formation by measuring YO-PRO uptake by FLIPR assay. Type of series: cell-based.
Series [4] has as its target T2, P2X purinoceptor 7. Briefly: Antagonist activity at human P2X7 receptor expressed in human THP1 cells assessed as reduction in BzATP-induced IL-1beta levels preincubated for 30 mins followed by BzATP addition measured after 30 mins by ELISA. Type of series: cell-based. A general note: ELISA stands for enzyme-linked immunosorbent assay.
In series [5] the target is P2X purinoceptor 7 (Rattus norvegicus, UniProt Q64663). Briefly: Antagonist activity at rat P2X7 receptor expressed in human 1321N1 cells assessed as reduction in agonist-induced intracellular Ca2+ levels preincubated for 3 mins followed by agonist addition measured up to 2 mins by Fluo-4 dye-based FLIPR assay. Type of series: cell-based.
P2X purinoceptor 7 (Rattus norvegicus, UniProt Q64663), sequence (Q64663 whole entry): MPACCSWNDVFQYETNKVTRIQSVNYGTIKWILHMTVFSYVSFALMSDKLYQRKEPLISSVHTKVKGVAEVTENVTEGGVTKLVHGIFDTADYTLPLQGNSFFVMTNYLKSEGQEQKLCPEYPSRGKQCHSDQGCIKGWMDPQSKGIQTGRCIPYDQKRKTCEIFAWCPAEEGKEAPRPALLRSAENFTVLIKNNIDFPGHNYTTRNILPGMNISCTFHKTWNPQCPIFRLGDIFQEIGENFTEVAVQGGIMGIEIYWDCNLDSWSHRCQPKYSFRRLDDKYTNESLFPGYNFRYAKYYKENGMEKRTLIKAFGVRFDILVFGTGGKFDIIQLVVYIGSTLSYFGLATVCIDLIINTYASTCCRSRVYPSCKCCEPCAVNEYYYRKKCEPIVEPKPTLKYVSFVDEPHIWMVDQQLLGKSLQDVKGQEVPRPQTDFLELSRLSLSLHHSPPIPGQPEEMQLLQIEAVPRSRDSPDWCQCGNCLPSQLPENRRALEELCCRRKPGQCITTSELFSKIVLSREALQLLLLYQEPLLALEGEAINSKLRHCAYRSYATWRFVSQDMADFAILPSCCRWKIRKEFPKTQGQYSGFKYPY
Series [6] deals with T1, P2X purinoceptor 7. Briefly: Antagonist activity at P2X7 receptor in Swiss mouse peritoneal macrophages assessed as inhibition of BzATP-induced ethidium iodide uptake after 30 mins by spectrofluorometric analysis.
The target of series [7] is T2, P2X purinoceptor 7. Description: Antagonist activity at human P2X7 receptor expressed in HEK293 cells assessed as inhibition of ATP-induced ethidium iodide uptake preincubated for 10 mins followed by ATP addition measured after 20 mins by spectrofluorometric analysis. Type of series: cell-based.
Series [8] has as its target T1, P2X purinoceptor 7. Description: Antagonist activity at P2X7 receptor in Swiss mouse peritoneal macrophages assessed as inhibition of ATP-induced current at holding potential of -60 mV preincubated for 5 mins followed by ATP addition measured after 5 mins by Whole cell patch-clamp analysis. On the technique in general: Patch clamp records ionic current or voltage across a cell membrane.

Series [9] addresses P2X purinoceptor 7 (Mus musculus) (UniProt Q9Z1M0). Briefly: Antagonist activity at P2X7 receptor in Swiss mouse peritoneal macrophages assessed as inhibition of ATP-induced propidium iodide uptake at 750 nM after 30 mins by FLIPR assay relative to 1 mM ATP.
Series [10] deals with T1, P2X purinoceptor 7. Briefly: Antagonist activity at P2X7 receptor in Swiss mouse peritoneal macrophages assessed as inhibition of BzATP-induced current at holding potential of -60 mV preincubated for 5 mins followed by BzATP addition measured after 5 mins by Whole cell patch-clamp analysis.
Series [11] deals with Peritoneal macrophage. Briefly: Toxicity in Swiss mouse peritoneal macrophages assessed as LDH release at 750 nM after 60 mins relative to 0.05% Triton X-100. Type of series: cell-based. As to conditions: 1 h, 0.75 µM. On the technique in general: LDH in the medium is a marker of cell lysis.
Series [12] deals with T3, P2X purinoceptor 7 (Homo sapiens) (UniProt Q99572).
T3 sequence (whole entry): T2 sequence (Q99572 whole entry)
Description: Antagonist activity at human P2X7 receptor expressed in HEK293 cells assessed as inhibition of ATP-induced ethidium iodide uptake at 750 nM preincubated for 10 mins followed by ATP addition measured after 20 mins by FLIPR assay relative to 1 mM ATP. Type of series: cell-based.

Series [13] concerns the target T4, P2X purinoceptor 7 (Mus musculus) (UniProt Q9Z1M0).
T4 sequence (whole entry): T1 sequence (Q9Z1M0 whole entry)
Description: (§1) Antagonist activity at P2X7 receptor in Swiss mouse peritoneal macrophages assessed as inhibition of ATP-induced propidium iodide uptake after 25 mins by flow cytometric analysis.

Series [14] has as its target T1, P2X purinoceptor 7. The description is as §1.
The target in series [15] is T1, P2X purinoceptor 7. Briefly: Antagonist activity at P2X7 receptor in LPS/IFNc-differentiated Swiss mouse peritoneal macrophages assessed as inhibition of ATP-induced IL-1beta release preincubated for 30 mins followed by LPS stimulation for 4 hrs using cells treated with ATP for 30 mins by ELISA.
For series [16], the system named is Mus musculus. Description: Anti-inflammatory activity in ip dosed Swiss Webster mouse assessed as inhibition of carrageenan-induced paw edema pretreated for 60 mins followed by carrageenan administration and measured after 30 mins. It counts as functional.
In series [17] the test system is Mus musculus. Briefly: Anti-inflammatory activity in po dosed Swiss Webster mouse assessed as inhibition of carrageenan-induced paw edema pretreated for 60 mins followed by carrageenan administration and measured after 60 mins. Type of series: functional.
Series [18] has as its system Mus musculus. Description: Anti-inflammatory activity in po dosed Swiss Webster mouse assessed as inhibition of ATP-induced paw edema pretreated for 60 mins followed by ATP administration and measured after 30 mins. Type of series: functional.
The test system of series [19] is Mus musculus. Description: Anti-inflammatory activity in ip dosed Swiss Webster mouse assessed as inhibition of ATP-induced paw edema pretreated for 60 mins followed by ATP administration and measured after 30 mins. It counts as functional.
The target of series [20] is T2, P2X purinoceptor 7. Description: Antagonist activity at human P2X7 receptor in PMA-differentiated THP-1 macrophages assessed as inhibition of ATP-induced IL-1beta release preincubated for 30 mins followed by ATP addition measured after 30 mins by ELISA.

Each structure is given as a SMILES string.

A word on the IC50: it is the concentration that gives 50% inhibition. On to `Clc1cccc(-n2nnnc2NCc2ccccc2Oc2ccccn2)c1Cl`, for which the IC50 in series [1] is 20 to 150 nM; in series [2] it was 20 to 150 nM; in series [3], 6.61 nM; in series [4], 37.2 nM; in [5], 20 to 150 nM.
What is called inhibition is the drop in the measured response relative to a control, in per cent. As to `CCOc1ccc(Nc2ccc(/C(=C3C=C/C(=[N+](/CC)Cc4cccc(S(=O)(=O)[O-])c4)C=C/3C)c3ccc(N(CC)Cc4cccc(S(=O)(=O)[O-])c4)cc3C)cc2)cc1.[Na+]` [BRILLIANT BLUE G], the IC50 is 432 nM in series [6]; 552 nM in [7]; 109 nM in [8]; 407 nM in series [10]; 343 nM in [14]. Further, the inhibition is 78.9% in series [9], 90.1% in series [12] and “Dose-dependent effect” in series [13]. Besides, the Activity in series [11] stood at 13.22%.
Consider `COc1ccc(CC(=O)NC(N/C(=N/C#N)Nc2cccc3ncccc23)C(C)(C)C)cc1OC` (stereo not drawn), for which the IC50 in [15] turned out to be 112 nM; in [6] it was 63.3 nM; in series [7], 86 nM; in series [10] it was 46.9 nM; in [20] it was 82 nM. Further, the ID50 in [16] was 0.1423 µg/kg; in [17], 0.119 µg/kg; in [18] it was 0.1097 µg/kg; in [19], 0.1058 µg/kg.
